How the values were obtained:
[1] = DTNB assay for reactivity with free thiols, reduced glutathione; assay type: physicochemical; settings: 0.25 mM reduced glutathione, 30 min at 37° C., pH 8.0
Protocol: (§1) Dithiobis-2-nitrobenzioc acid (DTNB) assay for free sulfhydryls. Similar to previously described in SALIPUR et al. “A novel small molecule that induces oxidative stress and selectively kills malignant cells” Free Radic Biol Med. (2014) Vol. 68, pp. 110-121, which is herein incorporated by reference in its entirety, reactivity with free sulfhydryls was evaluated using DTNB (Sigma). Briefly, a 4× solution of DTNB (6 mM DTNB, 50 mM sodium acetate in 100 mM Tris-HCl, pH 8.0) and solutions of 0.5 mM cysteine (Sigma) and reduced glutathione (GSH, Sigma) in 100 mM Tris-HCl, pH 8.0 were freshly prepared. The 200 mM stock solutions of XB05, other compounds, diethylmaleate (Sigma), and maleimide (Sigma) were prepared in 100% DMSO, and subsequently diluted to 2× working solutions in 100 mM Tris-HCl, pH 8.0. Thiol compounds (final concentration 0.25 mM) and thiol-reactive compounds (final concentrations 0.04-5 mM) or vehicle were added in duplicate to a 96-well plate and incubated for 30 min at 37° C. DTNB solution was then added to each well (final concentration 400 μM), and incubated at room temperature for an additional 5 min. Absorbance at 412 nm was determined by a Biotek HT Synergy plate reader (Winooski, Vt.).

[2] = test system: IMR-90 (non-malignant lung fibroblasts); assay: MTT antiproliferative assay in IMR-90 cells; assay type: cell-based; settings: Homo sapiens, 72 hrs treatment, read-out: MTT Antiproliferative Activity - IC50 (μM) IMR0 (non-malignant lung fibroblasts)
Protocol: (§2) Cell culture. A549 and IMR-90 cells were purchased from the American Type Culture Collection (ATCC), while HOP-62 and HOP-92 were obtained from the cell line repository at the National Cancer Institute. Cells were grown in the appropriate medium supplemented with 10% fetal bovine serum (FBS, Life Technologies, Grand Island, N.Y.), 62.5 μg/mL penicillin and 100 μg/mL streptomycin (Life Technologies) in a humidified incubator at 37° C. with 5% CO2. The media were as follows: Dulbecco's modified Eagle's medium (DMEM, Life Technologies) for A549 cells; RPMI 1640 (Life Technologies) for HOP-62 and HOP-92 cells; Eagle's minimal essential medium (EMEM) with Eagle's balanced salt solution (EBSS), 2 mM L-glutamine, 1500 mg/L sodium bicarbonate (Lonza, Walkersville, Md.), supplemented with 1 mM sodium pyruvate (Life Technologies) and non-essential amino acids (Life Technologies) for IMR-90 cells. Cell lines were verified with a 9-marker short tandem repeat profile and inter-species contamination test (Idexx BioResearch), although A549 cells utilized in proliferation assays were missing the Y allele at the amelogenin marker.
(§3) Cell proliferation & viability assays. Anti-proliferative activity of XB05 and other compounds was evaluated using a previously published 3-(4,5-dimethylthiazol-2-yl)-2,5-diphenyltetrazolium bromide (MTT) assay protocol (MORGAN “Tetrazolium (MTT) assay for cellular viability and activity” Methods Mol Biol. (1998) Vol. 79, pp. 179-83, which is herein incorporated by reference in its entirety, BATES et al. “Antiproliferative activity of G-rich oligonucleotides correlates with protein binding” J Biol Chem. (1999) Vol. 274, No. 37, pp. 26369-26377, which is herein incorporated by reference in its entirety, SALIPUR et al. “A novel small molecule that induces oxidative stress and selectively kills malignant cells” Free Radic Biol Med. (2014) Vol. 68, pp. 110-121, which is herein incorporated by reference in its entirety). Cells were seeded in quadruplicate wells in 96-well plates and allowed to adhere overnight. […] After 72 hrs of treatment with XB05 or other compounds, MTT (Sigma, St. Louis, Mo.) was added for 4 hrs prior to cell lysis. Each assay was performed in at least triplicate.
(§4) XB05 and related compounds were assessed for anti-proliferative activity in malignant (A549) and non-malignant (IMR-90) cells (Table A2).

[3] = test system: A549 (lung adenocarcinoma); assay: MTT antiproliferative assay in A549 cells; assay type: cell-based, human; settings: Homo sapiens, 72 hrs treatment, MTT
Protocol: as §2, §3, §4

[4] = DTNB assay for reactivity with free thiols, cysteine; assay type: physicochemical; settings: 0.25 mM cysteine, 30 min at 37° C., pH 8.0
Protocol: as §1

Compound | IC50 [3] [µM] | DTNB Reactivity with Thiols - DTNB assay with Glutathione [1] | IC50 [2] [µM] | DTNB Reactivity with Thiols - DTNB assay with Cysteine [4]
C#CC(O)CCCCC (stereo not shown) [Compound 1-Octyn-3-ol, 1-Octyn-3-ol] | > 10 | ND (DTNB ND - not detected at concentrations up to 2.5 mM) | > 10 | Reactive
CCCCCC(C#CC(F)(F)Br)OC (stereo not shown) [JAB-4-155] | 3.5 | ND (DTNB ND - not detected at concentrations up to 2.5 mM) | > 10 | ND (DTNB ND - not detected at concentrations up to 2.5 mM)
CCCCCC(O)C#CC(F)(F)F (stereo not shown) [JAB-4-156] | > 10 | ND (DTNB ND - not detected at concentrations up to 2.5 mM) | > 10 | ND (DTNB ND - not detected at concentrations up to 2.5 mM)
CCCCCCC#CC(F)(F)Br [JAB-4-158] | 2.1 | ND (DTNB ND - not detected at concentrations up to 2.5 mM) | > 10 | ND (DTNB ND - not detected at concentrations up to 2.5 mM)
CCCCCC(=O)C#CC(F)(F)Br [JAB-4-163] | > 10 | ND (DTNB ND - not detected at concentrations up to 2.5 mM) | > 10 | ND (DTNB ND - not detected at concentrations up to 2.5 mM)
CCCCCC(=O)/C=C(\NCCC)C(F)(F)Br [JAB-4-165] | > 10 | ND (DTNB ND - not detected at concentrations up to 2.5 mM) | > 10 | ND (DTNB ND - not detected at concentrations up to 2.5 mM)
CC/C=C\CCC(O)C#CC(F)(F)Br (stereo not shown) [JAB-4-169] | 0.4 | ND (DTNB ND - not detected at concentrations up to 2.5 mM) | 3.8 | ND (DTNB ND - not detected at concentrations up to 2.5 mM)
CCCCCC(Cl)C#CC(F)(F)Br (stereo not shown) [MNR-1-102] | > 10 | Reactive | > 10 | ND (DTNB ND - not detected at concentrations up to 2.5 mM)
CCCCCC(O)C#CC(F)(F)Oc1ccc(F)cc1 (stereo not shown) [MNR-1-110] | > 10 | ND (DTNB ND - not detected at concentrations up to 2.5 mM) | > 10 | ND (DTNB ND - not detected at concentrations up to 2.5 mM)
CCCCCC(O)C#CC(F)(F)SCc1ccccc1 (stereo not shown) [MNR-1-111] | > 10 | ND (DTNB ND - not detected at concentrations up to 2.5 mM) | > 10 | ND (DTNB ND - not detected at concentrations up to 2.5 mM)
CCCC(C)C(O)C#CC(F)(F)Br (stereo not shown) [MNR-1-117] | 1.9 | ND (DTNB ND - not detected at concentrations up to 2.5 mM) | 7.9 | ND (DTNB ND - not detected at concentrations up to 2.5 mM)
CCCCCC(C)(O)C#CC(F)(F)Br (stereo not shown) [MNR-1-118] | 8.2 | ND (DTNB ND - not detected at concentrations up to 2.5 mM) | > 10 | ND (DTNB ND - not detected at concentrations up to 2.5 mM)
CCCC(O)C#CC(F)(F)Br (stereo not shown) [MNR-1-122] | 0.8 | ND (DTNB ND - not detected at concentrations up to 2.5 mM) | 1.1 | ND (DTNB ND - not detected at concentrations up to 2.5 mM)

The next lines start with results.

IC50 [3] [µM] | Compound | DTNB Reactivity with Thiols - DTNB assay with Glutathione [1] | IC50 [2] [µM] | DTNB Reactivity with Thiols - DTNB assay with Cysteine [4]
> 10 | OC(C#CC(F)(F)Br)CCCCc1ccccc1 (stereo not shown) [MNR-1-129] | – | > 10 | –
1.1 | CCC#CCCCCCCCC(O)C#CC(F)(F)Br (stereo not shown) [MNR-1-147] | – | 4 | –
> 10 | CC(C)(C)OC(=O)NCCCCCCCCCC(O)C#CC(F)(F)Br (stereo not shown) [MNR-1-186] | – | > 10 | –
> 10 | O=C(CCCCC1SCC2NC(=O)NC21)NCCOCCOCCOCCOCCC(=O)NCCCCCCCCCC(O)C#CC(F)(F)Br (stereo not shown) [MNR-2-6] | – | > 10 | –
1.9 | CCCCCC(C#CC(F)(F)Br)OC1CCCCO1 (stereo not shown) [MNR-3-27] | – | 3.7 | –
0.4 | CCCCC[C@@H](O)C#CC(F)(F)Br [MNR-3-38] | ND (DTNB ND - not detected at concentrations up to 2.5 mM) | 1.5 | ND (DTNB ND - not detected at concentrations up to 2.5 mM)
4.8 | CCCCC[C@H](O)C#CC(F)(F)Br [MNR-3-41] | – | > 10 | –
0.9 | CCCCCC(C#CC(F)(F)Br)OC(C)=O (stereo not shown) [MNR-3-43] | ND (DTNB ND - not detected at concentrations up to 2.5 mM) | 5.4 | ND (DTNB ND - not detected at concentrations up to 2.5 mM)
1 | CCCCCCCCCC(O)C#CC(F)(F)Br (stereo not shown) [MNR-3-69] | – | 2.8 | –
1.2 | OC(C#CC(F)(F)Br)CCc1ccccc1 (stereo not shown) [MNR-3-82] | – | 2.8 | –
> 10 | CC(C)(C)C(O)C#CC(F)(F)Br (stereo not shown) [MNR-3-85] | – | > 10 | –
> 10 | CC(C)C(O)C#CC(F)(F)Br (stereo not shown) [MNR-3-86] | – | > 10 | –
1.1 | CCCCCCCCCCCC(O)C#CC(F)(F)Br (stereo not shown) [MNR-3-89] | – | 2.7 | –
0.9 | OC(C#CC(F)(F)Br)C1CCCCC1 (stereo not shown) [MNR-3-90] | – | 3.1 | –
> 10 | CCCCCC(O)C#CC(F)F (stereo not shown) [MNR-3-91] | – | > 10 | –
7.1 | CCCCCC(O)C#CCBr (stereo not shown) [MNR-3-92] | Reactive | 8.7 | Reactive
> 10 | OC(C#CC(F)(F)Br)c1ccccc1 (stereo not shown) [MNR-3-93] | – | > 10 | –
0.9 | CCCCCCCC(O)C#CC(F)(F)Br (stereo not shown) [MNR-3-94] | – | 2.7 | –

From patent US11679098B2, “Methods for treating diseases” (UNIVERSITY OF LOUISVILLE RESEARCH FOUNDATION, INC., priority 2018, dated 2023)
